In patent US4352944A, “Treatment of cashew nut shell liquid” (Minnesota Mining and Manufacturing Company, priority 1980, dated 1982):
“Also recorded” adds a separate entry of the source.

Tests used:
[1] = Runs with different amines on distilled CNSL, GC of distillate (Example 2); details: 0.2 mole amine, seven days, 0.5 mm Hg, fraction 180-185° C.
Procedure: A series of runs was performed using different amines. 0.2 mole of the amines indicated in the table was mixed with 300 g of distilled CNSL (cardanol:cardol 90:10, 1.0 mole). When the mixture was stirred a mild exothermic reaction was noted. The mixture was allowed to stand for seven days at room temperature then distilled at 0.5 mm Hg. The major fraction (boiling at 180° to 185° C.) was analyzed by gas chromatography for cardanol and cardol.

[2] = Distillation of distilled CNSL treated with amines (Example 1, Table 2)
Description: (§1) Technical CNSL of Brazilian origin and distilled CNSL obtained from it were used in the present work. Material of this origin tends to be richer in cardol. The average molecular weight was taken to be 306 based upon cardanol (average dienoid, m.w. 300) and cardol (m.w. 314, average trienoid). Three amines were used, namely diethylenetriamine (V), N-(2-aminoethyl)ethanolamine (VI) and diethanolamine (VII), which are structurally related. [drawing 3] Different molar proportions of the triamine (DETA) (V) were used with distilled CNSL (1.0 mole), from 0.25, 0.50 to 1.0. In the case of Technical CNSL (having more cardol initially present) the molar proportions of DETA were 1.0, 1.6 and 2.0 per mole of the CNSL. The mixtures in all cases were kept for 7 days and then distilled under high vacuum. After recovery of the amine, one fraction of cardanol which was considerably purified was collected. […] The distillation residue was still quite mobile and from this, cardol and the polymer from the original CNSL could be recovered.
(§2) In the distillations reported in the following Tables 1 and 2 a Vigreux column was not used but merely a short still head section. All products were examined by gas-liquid chromatography (hereinafter GLC) on a gas chromatographic apparatus equipped with an integrator upon a 3% SE30 type column after trimethylsilylation with bis-(trimethylsilyl)acetamide in a pyridine solution. In the calculation of the results, response fractions have not been used. The peak areas as printed out by integration have been normalized (expressed in % form).
(9.18 g distilled CNSL was used with different

[3] = Effect of length of time of DETA treatment (Example 3)
Description: as §1, §2
Technical CNSL was treated with DETA (1 mole proportion) and the mixture distilled as in Example 1 after it had been allowed to stand for 24 hours instead of 7 days. […] Probably an overnight procedure might well suffice.

[4] = determined in aqueous solution; literature values; cited from earlier work
[5] = Effectiveness of bases in cardol removal / cardol-cardanol separation (Example 7); details: for effect on separation / suitability, in words: general statement
[6] = Distillation of Technical CNSL treated with amines (Example 1, Table 1); details: for % composition of distillate: 2-me-Cardol / % composition of distillate: Cardanol / % composition of distillate: Cardol / % composition of residue: 2-me-Cardol / % composition of residue: Cardanol / % composition of residue: Cardol: short still head
Description: as §1
In a typical experiment, technical CNSL (9.18 g) and DETA (3.09 g: 1 mole) were interacted at ambient temperature and the mixture after 7 days distilled through a short Vigreux type Claisen flask.
as §2
(9.18 g of Technical CNSL was used)

Q: Which results are given for `NCCNCCN` [DETA, diethylenetriamine]?
A: % composition of distillate: Cardanol [1]: 98.9%; % composition of distillate: Cardol [1]: 0.0%; % composition of distillate: 2-me-Cardol ([2]; amine 0.25 M): 0.7%; % composition of distillate: Cardanol ([2]; amine 0.25 M): 95.4%; % composition of distillate: Cardol ([2]; amine 0.25 M): 3.9%; % composition of distillate: 2-me-Cardol ([2]; amine 0.50 M): 0.4%; % composition of distillate: Cardanol ([2]; amine 0.50 M): 97.7%; % composition of distillate: Cardol ([2]; amine 0.50 M): 2.0%; % composition of distillate: 2-me-Cardol ([2]; amine 1.0 M): 2.0%; % composition of distillate: Cardanol ([2]; amine 1.0 M): 93.8%; % composition of distillate: Cardol ([2]; amine 1.0 M): 4.2%; effectiveness of 24 hour treatment ([3]; 24 h, 1 mole proportion): quite effective; % Composition of distillate: 2-Methyl-Cardol ([3]; 24 h with DETA (1 M)): 1.6%; % composition of distillate: Cardanol ([3]; 24 h with DETA (1 M)): 91.7%; % composition of distillate: Cardol ([3]; 24 h with DETA (1 M)): 6.6%; % Composition of distillate: 2-Methyl-Cardol ([3]; 7 days with DETA (1 M)): 1.8%; % composition of distillate: Cardanol ([3]; 7 days with DETA (1 M)): 92.0%; % composition of distillate: Cardol ([3]; 7 days with DETA (1 M)): 6.2%; Kb [4]: 4.5 × 10^-5; Effectiveness (in cardol removal) [5]: excellent; cardol after distillation ([6]; 1 molar proportion, no Vigreux column, from ca 20%): ~6%; impurity in distilled cardanol by TLC ([6]; 1 mole DETA, 7 days, short Vigreux type flask): no cardanol; cardol after distillation, in words ([6]; Vigreux type column): almost zero; % composition of distillate: 2-me-Cardol ([6]; amine 1 M, 7 days): 1.9%; % composition of distillate: Cardanol ([6]; amine 1 M, 7 days): 93.0%; % composition of distillate: Cardol ([6]; amine 1 M, 7 days): 5.1%; % composition of residue: 2-me-Cardol ([6]; amine 1 M, 7 days): 3.2%; % composition of residue: Cardanol ([6]; amine 1 M, 7 days): 85.6%; % composition of residue: Cardol ([6]; amine 1 M, 7 days): 11.2%; % composition of distillate: 2-me-Cardol ([6]; amine 1.6 M, 7 days): 2.1%; % composition of distillate: Cardanol ([6]; amine 1.6 M, 7 days): 91.1%; % composition of distillate: Cardol ([6]; amine 1.6 M, 7 days): 6.8%; % composition of residue: 2-me-Cardol ([6]; amine 1.6 M, 7 days): 4.24%; % composition of residue: Cardanol ([6]; amine 1.6 M, 7 days): 75.1%; % composition of residue: Cardol ([6]; amine 1.6 M, 7 days): 21.7%; % composition of distillate: 2-me-Cardol ([6]; amine 2 M, 7 days): 1.1%; % composition of distillate: Cardanol ([6]; amine 2 M, 7 days): 93.1%; % composition of distillate: Cardol ([6]; amine 2 M, 7 days): 5.8%; % composition of residue: 2-me-Cardol ([6]; amine 2 M, 7 days): 7.6%; % composition of residue: Cardanol ([6]; amine 2 M, 7 days): 63.2%; % composition of residue: Cardol ([6]; amine 2 M, 7 days): 29.1%

Q: For `OCCNCCO` [Diethanolamine, diethanolamine], which “Effectiveness (in cardol removal)” value [5] is on record?
A: Its value is “not effective; also recorded: ineffective”.

Q: And the “effect on separation / suitability, in words” value [5]?
A: Its value is “not effective”.

Q: What about the “% composition of distillate: 2-me-Cardol” value ([6]; amine 1.5 M, 7 days) of the same molecule?
A: Its value is 2.3%.

Q: What about the “% composition of distillate: Cardanol” value ([6]; amine 1.5 M, 7 days) of the same molecule?
A: The value was 88.0%.

Q: And the “% composition of distillate: Cardol” value ([6]; amine 1.5 M, 7 days)?
A: The value was 9.7%.

Q: And the “% composition of residue: 2-me-Cardol” value ([6]; amine 1.5 M, 7 days)?
A: Its value is 10.4%.

Q: What about the “% composition of residue: Cardanol” value ([6]; amine 1.5 M, 7 days) of the same molecule?
A: The value was 55.7%.

Q: What about the “% composition of residue: Cardol” value ([6]; amine 1.5 M, 7 days) of the same molecule?
A: The value was 33.9%.

Q: Which results are given for `NCCNCCO` [N-(2-Aminoethyl)ethanolamine, N-(2-aminoethyl)ethanolamine]?
A: Kb [4]: 6.6 × 10^-5; Effectiveness (in cardol removal) [5]: excellent; % composition of distillate: 2-me-Cardol ([6]; amine 1.5 M, 7 days): 2.3%; % composition of distillate: Cardanol ([6]; amine 1.5 M, 7 days): 92.4%; % composition of distillate: Cardol ([6]; amine 1.5 M, 7 days): 5.3%; % composition of residue: 2-me-Cardol ([6]; amine 1.5 M, 7 days): 4.7%; % composition of residue: Cardanol ([6]; amine 1.5 M, 7 days): 75.5%; % composition of residue: Cardol ([6]; amine 1.5 M, 7 days): 19.8%

Q: What does the source list for `C1CCNCC1` [Piperidine, piperidine]?
A: % composition of distillate: Cardanol [1]: 96.1%; % composition of distillate: Cardol [1]: 2.2%; Kb [4]: 1.7 × 10^-3; Effectiveness (in cardol removal) [5]: excellent

Q: Which “effect on separation / suitability, in words” value [5] does the source give for `N` [ammonium hydroxide] here?
A: The value was “not suitable”.

Q: For `CCCCN` [n-butylamine], which “% composition of distillate: Cardanol” value [1] is on record?
A: Its value is 94.5%.

Q: And the “% composition of distillate: Cardol” value [1]?
A: Its value is 5.5%.

Q: And the Kb [4]?
A: The Kb was 3.9 × 10^-4.

Q: What about the “Effectiveness (in cardol removal)” value [5] of the same molecule?
A: The value was “not effective; also recorded: ineffective”.

Q: What about the “effect on separation / suitability, in words” value [5] of the same molecule?
A: Its value is “not suitable”.

Q: For `CCN(CC)CC` [triethylamine], which Kb [4] is on record?
A: Its Kb is 4.5 × 10^-4.

Q: And the “Effectiveness (in cardol removal)” value [5]?
A: Its value is “excellent”.
